Measured values as given in patent publication US10059950B2, “Compositions comprising an internalizing nucleic acid molecule, and their methods of use” (B3 BIO, INC., priority 2012, dated 2018).
In the oligonucleotide strings, read from the 5' end, every base follows the letter of its sugar. An asterisk marks phosphorothioate; unmarked linkages are phosphodiester. Other units and linkages are bracketed, terminal groups are in braces. A string of capitals states the bases alone. r = 2'-OH (RNA); f = 2'-fluoro

Tested on: human prostate cancer cell line PC-3
Experiment: Flow cytometric-based screening assay for internalization in PC-3 cells
Type: cell-based
Settings: for ability to bind and internalize as compared to wildtype iNA (E3-45): PC-3, in words
Description: In illustrating a screening process for internalization, from clones selected for further analysis from the selection process, a flow cytometric-based assay for binding and/or internalization was utilized. Typically, the assay was performed by incubating 200 nM of each clone with 5×10^5 target cells in 100 ul PBS containing 0.5% bovine serum albumin (BSA) in a 13 mm tube for 2 hours @ 37° C. A first portion of the cells was then treated with RNAse to remove any of the clone remaining bound to the surface of the cells, so as to allow detection and quantitation of internalized clone (i.e., measuring internalization). In parallel, a second portion of the cells was treated with PBS containing 0.5% BSA (lacking added RNase activity to enzymatically cleave […]), so as to allow detection and quantitation of clone remaining bound to the cell surface, as well as internalized clone (i.e., measuring binding and internalization). Following further washes with phosphate-buffered saline, the cells were fixed in 1% formaldehyde and then subjected to analysis on a flow cytometer using commercially available analysis software. In performing analyses by flow cytometry, several assay controls were used. As an assay control representing either no or background (e.g., non-specific) internalization, an RNA molecule resulting from a selection process for binding a molecule not detectably expressed on target cells was used. The assay control RNA molecule was further modified with Alexa 647, and then used for further characterization of clones from the selection process described herein. For ease of description and reference for this Example, this assay control RNA molecule is referred to herein as Negative Control 1 (see, e.g., Table 5). As an additional assay control that represents either no or background internalization, used was an RNA molecule from the starting library which was chosen from the library prior to beginning a selection method described herein, and that was further modified with Alexa 647. This assay control RNA molecule is referred to herein as Negative Control 2 (see, e.g., Tables 5, 7, and 8). Additionally, fluorescence of unstained cells was measured, as a control, to quantitate any background fluorescent properties of the cells themselves as encountered in analyses by flow cytometry (“Unstained”), as opposed to fluorescent signal mediated by the RNA molecules further modified to include Alexa 647. Shown in Table 5 are the results of analyses by flow cytometry in which measured and quantitated was the ability of clones, selected on the basis of sequence convergence, to internalize into target cells represented by human prostate cancer cell line PC-3. The units of fluorescence in Table 5 represent mean fluorescence (“Mean”). The fold increase (determined by dividing the mean fluorescence of a clone by the mean fluorescence of unstained cells) is an indicator of the ability of a clone, or a clone which has been further modified to include an effector moiety, to internalize into the target cells (Table 5; “Fold Increase”).
The truncations, illustrated in Table 6, were each further modified with a detectable moiety, Alexa 647, and analyzed by a flow cytometric-based screening assay for internalization using the methods outlined in Example 2, to determine minimal sequences that maintain the full ability to internalize into human prostate cancer cells. Shown in Table 7 are the results of analyses by flow cytometry in which measured and quantitated was the ability of each truncation to internalize into target cells represented by human prostate cancer cell line PC-3. The units of fluorescence in Table 7 represent mean fluorescence intensity (“Mean”). […]

[1] = Table 7, truncations modified with Alexa 647, PC-3
[2] = Table 8, mutants of E3-45, PC-3

Substance	Fold increase (mean fluorescence intensity / unstained cells) [1]	Mean (mean fluorescence intensity) [1]	Fold increase (mean fluorescence intensity / unstained cells) [2]	Mean (mean fluorescence intensity) [2]	ability to bind and internalize as compared to wildtype iNA (E3-45)
GGGUGCGGUACUUUCGGGCUUUCGGCAACAUCAGCCCCUCAGGACG (rGrGrGfUrGfCrGrGfUrAfCfUfUfUfCrGrGrGfCfUfUfUfCrGrGfCrArAfCrAfUfCrArGfCfCfCfCfUfCrArGrGrAfCrG; aptamer; Alexa 647 label attached, position not given here, further chemistry not fully specified) [E3-45, truncation of iNA E3, 45 bases; wildtype for mutants 1-8]	8.6	690	5.4	470	
mutant 7: site-directed mutant of E3-45 in a loop portion containing a conserved motif (GGGUGCGGUACUUUCGGGCUUUCGGCAACUAUAGCCCCUCAGGACG; listed as RNA, further chemistry not given here)			1.8	153	
mutant 8: mutant of E3-45 with loop portion mutated to 5′ to 3′ UUUCGAG (GGGUGCGGUACUUUCGGGCUGGCACUUUCGAAAGCCCCUCAGGACG; listed as RNA, chemistry not fully specified)			1.5	130	loss of binding and internalization
mutant 3: mutant of E3-45 with the conserved motif UUUCGG mutated in a loop portion (GGGUGCGGUACUUUCGGGCUAAAGGCAACAUCAGCCCCUCAGGACG; aptamer; listed as RNA, chemistry not fully specified)			1.6	142	loss of the ability to bind and internalize
mutant 5: site-directed mutant of E3-45 in a loop portion containing a conserved motif (GGGUGCGGUACUUUCGGGCUUUCGGCUUUAUCAGCCCCUCAGGACG; listed as RNA, further chemistry not given here)			1.9	164	
mutant 2: mutant of E3-45 with the conserved motif UUUCGG mutated in a loop portion (GGGUGCGGUACUAAAGGGCUUUCGGCAACAUCAGCCCAAAAGGACG; aptamer; listed as RNA, chemistry not fully specified)			1.5	127	loss of the ability to bind and internalize
mutant 1: assay control mutant of E3-45, mutation in a loop not containing the conserved motif UUUCGG (GGGUGCGAAACUUUCGGGCUUUCGGCAACAUCAGCCCCUCAGACCG; listed as RNA, chemistry not fully specified)			4.7	405	ability to internalize equally
mutant 6: site-directed mutant of E3-45 in a loop portion containing a conserved motif (GGGUGCGGUACUUUCGGGCUUUCGGCCCCAUCAGCCCCUCAGGACG; listed as RNA, further chemistry not given here)			1.9	167	
GGGAGGCUGGGCUUUCGGCAAC (rGrGrGrArGrGfCfUrGrGrGfCfUfUfUfCrGrGfCrArAfC; aptamer; Alexa 647 label attached, position not given here, further chemistry not fully specified) [E3-22, truncation of iNA E3, 22 bases]	1.0	80.7			
